Data published in patent US9084770B2, “Modulation of insulin like growth factor I receptor expression in cancer” (Antisense Therapeutics, Ltd., priority 2008, dated 2015).
Strand notation (5' to 3'): a small letter for the sugar, then the base; units joined by * are phosphorothioate-linked, units joined directly phosphodiester-linked; [ ] holds rarer units or linkages, { } end groups; capitals alone tell only the bases. e = 2'-O-(2-methoxyethyl) (MOE); [5mC] = 5-methylcytosine; d = 2'-deoxy (DNA)

Test system: human IGF-IR mRNA
Assay: Antisense inhibition of human IGF-IR mRNA levels by quantitative RT-PCR (Table 1)
Assay type: cell-based
Set-up: %INHIB (human IGF-IR mRNA levels): concentration or dose not given beside the values
Settings: as shown in Table 1
Description: Treatment of A549 cell cultures with oligonucleotides targeting IGF-IR is as described in WO 2004/072284.
Quantitation of IGF-IR mRNA levels was accomplished by RT-PCR using the ABI PRISM (trademark) 7600, 7700, or 7900 Sequence Detection System (PE-Applied Biosystems, Foster City, Calif.) according to manufacturer's instructions. This is a closed-tube, non-gel-based, fluorescence detection system which allows high-throughput quantitation of PCR products in real-time. As opposed to standard PCR in which amplification products are quantitated after the PCR is completed, products in real-time quantitative PCR are quantitated as they accumulate. This is accomplished by including in the PCR reaction an oligonucleotide probe that anneals specifically between the forward and reverse PCR primers, and contains two fluorescent dyes. A reporter dye (e.g., FAM or JOE, obtained from either PE-Applied Biosystems, Foster City, Calif., Operon Technologies Inc., Alameda, Calif. or Integrated DNA Technologies Inc., Coralville, Iowa) is attached to the 5′-end of the probe and a quencher dye (e.g., TAMRA, obtained from either PE-Applied Biosystems, Foster City, Calif., Operon Technologies Inc., Alameda, Calif. or Integrated DNA Technologies Inc., Coralville, Iowa) is attached to the 3′-end of the probe. When the probe and dyes are intact, reporter dye emission is quenched by the proximity of the 3′ quencher dye. During amplification, annealing of the probe to the target sequence creates a substrate that can be cleaved by the 5′-exonuclease activity of Taq polymerase. […] With each cycle, additional reporter dye molecules are cleaved from their respective probes, and the fluorescence intensity is monitored at regular intervals by laser optics built into the ABI PRISM (trademark) Sequence Detection System. In each assay, a series of parallel reactions containing serial dilutions of mRNA from untreated control samples generates a standard curve that is used to quantitate the percent inhibition after antisense oligonucleotide treatment of test samples.
PCR reagents were obtained from Invitrogen Corporation, (Carlsbad, Calif.). RT-PCR reactions were carried out by adding 20 μL PCR cocktail (2.5×PCR buffer minus MgCl2, 6.6 mM MgCl2, 375 μM each of dATP, dCTP, […] and dGTP, 375 nM each of forward primer and reverse primer, 125 nM of probe, 4 Units RNAse inhibitor, 1.25 Units PLATINUM (registered trademark) Taq, 5 Units MuLV reverse transcriptase, and 2.5×ROX dye) to 96-well plates containing 30 μL total RNA solution (20-200 ng). The RT reaction was carried out by incubation for 30 minutes at 48° C. Following a 10 minute incubation at 95° C. to activate the PLATINUM (trademark) Taq, 40 cycles of a two-step PCR protocol were carried out: 95° C. for 15 seconds (denaturation) followed by 60° C. for 1.5 minutes (annealing/extension).
Gene target quantities obtained by RT-PCR are normalized using either the expression level of GAPDH, a gene whose expression is constant, or by quantifying total RNA using RiboGreen (trademark) (Molecular Probes, Inc. Eugene, Oreg.). GAPDH expression is quantified by RT-PCR, by being run simultaneously with the target, multiplexing, or separately. Total RNA is quantified using RiboGreen (trademark) RNA quantification reagent (Molecular Probes, Inc. Eugene, Oreg.). Methods of RNA quantification by RiboGreen (trademark) are taught in Jones et al., 1998.
Probes and primers to human IGF-IR were designed to hybridize to the IGF-IR nucleotide sequence, using published sequence information (GenBank accession number NM000875 (SEQ ID NO:76) or M69229 (SEQ ID NO:77) which is the 5′ untranslated of the IGF-IR gene sequence (see FIG. 6).
In accordance with the present invention, a series of antisense compounds were designed to target different regions of the human IGF-IR mRNA or the 5′ untranslated region, using published sequences set forth in NM000875 (SEQ ID NO:77) and M69229 (SEQ ID NO:76). […]

Substance	inhibition of IGF-IR expression (lead compounds)
175314 (antisense e[5mC]*eT*e[5mC]*eG*e[5mC]*dT*dG*dA*dA*dG*dG*dT*d[5mC]*dA*d[5mC]*eA*eG*e[5mC]*e[5mC]*eG) [compound 175314]	demonstrated inhibition
323744 (antisense CGTGGTTGCAGCTGTGGATA; listed as DNA, chemistry not fully specified) [compound 323744]	demonstrated inhibition
323762 (antisense GCCTTGTGTCCTGAGTGTCT; listed as DNA, chemistry not fully specified) [compound 323762]	demonstrated inhibition

Same assay, conditions: quantitative RT-PCR; averages from 3 experiments

Substance	%INHIB (human IGF-IR mRNA levels)
323702 (antisense CGGCCTTGGAGATGAGCAGG; listed as DNA, chemistry not fully specified) [compound 323702]	66%
323723 (antisense AGCAGCGGTAGTTGTACTCA; listed as DNA, chemistry not fully specified) [compound 323723]	70%
323707 (antisense GAGATTGGTCATCTCGAAGA; listed as DNA, chemistry not fully specified) [compound 323707]	20%
323714 (antisense ATGTAGTTATTGGACACCGC; listed as DNA, chemistry not fully specified) [compound 323714]	64%
323759 (antisense ATTTTGACTGTGAAATCTTC; listed as DNA, chemistry not fully specified) [compound 323759]	13%
175314 (antisense e[5mC]*eT*e[5mC]*eG*e[5mC]*dT*dG*dA*dA*dG*dG*dT*d[5mC]*dA*d[5mC]*eA*eG*e[5mC]*e[5mC]*eG) [compound 175314]	87%
323731 (antisense GTCCAGGGCTTCAGCCCATG; listed as DNA, chemistry not fully specified) [compound 323731]	74%
175301 (antisense AGCCCAAATCTGCCTAGGCG; listed as DNA, chemistry not fully specified) [compound 175301]	77%
323735 (antisense ATTTTGTCTTTGGAGCAGTA; listed as DNA, chemistry not fully specified) [compound 323735]	65%
323732 (antisense GTGAGGGTCACAGCCTTGAC; listed as DNA, chemistry not fully specified) [compound 323732]	59%
323752 (antisense TCCTGTCTGGACACACATTC; listed as DNA, chemistry not fully specified) [compound 323752]	66%
323719 (antisense TGTTGATGGTGGTCTTCTCA; listed as DNA, chemistry not fully specified) [compound 323719]	66%
323712 (antisense TCTCAATCCTGATGGCCCCC; listed as DNA, chemistry not fully specified) [compound 323712]	56%
175318 (antisense GAAACGCGGAGTCAAAATGA; listed as DNA, chemistry not fully specified) [compound 175318]	68%
323744 (antisense CGTGGTTGCAGCTGTGGATA; listed as DNA, chemistry not fully specified) [compound 323744]	85%
323768 (antisense GGAGTTTAAAGGACAGTGCC; listed as DNA, chemistry not fully specified) [compound 323768]	59%
323736 (antisense AGGAAATTCTCAAAGACTTT; listed as DNA, chemistry not fully specified) [compound 323736]	43%
323729 (antisense ATGTTCCAGCTGTTGGAGCC; listed as DNA, chemistry not fully specified) [compound 323729]	72%
323739 (antisense CTGCTCTCAAAGAAAGGGTA; listed as DNA, chemistry not fully specified) [compound 323739]	58%

Substance	%INHIB (human IGF-IR mRNA levels)
175306 (antisense AAGTCCGGGTCACAGGCGAG; listed as DNA, chemistry not fully specified) [compound 175306]	54%
323764 (antisense GCTGCTTGCATATTGAAAAA; listed as DNA, chemistry not fully specified) [compound 323764]	77%
323728 (antisense TCCCACAGTTGCTGCAAGTT; listed as DNA, chemistry not fully specified) [compound 323728]	73%
323697 (antisense TGATAGTCGTTGCGGATGTC; listed as DNA, chemistry not fully specified) [compound 323697]	73%
323730 (antisense CCACCATGTTCCAGCTGTTG; listed as DNA, chemistry not fully specified) [compound 323730]	78%
323710 (antisense AAGCCCAATATCCTTGAGAT; listed as DNA, chemistry not fully specified) [compound 323710]	43%
323758 (antisense GAGACCGGAGATAACTTTTG; listed as DNA, chemistry not fully specified) [compound 323758]	29%
175296 (antisense ATGCTGGTAAACAAGAGCCC; listed as DNA, chemistry not fully specified) [compound 175296]	57%
323724 (antisense GGTCCAGCAGCGGTAGTTGT; listed as DNA, chemistry not fully specified) [compound 323724]	60%
323715 (antisense CCACAATGTAGTTATTGGAC; listed as DNA, chemistry not fully specified) [compound 323715]	65%
175300 (antisense GCTGGTAAACAAGAGCCCCA; listed as DNA, chemistry not fully specified) [compound 175300]	54%
323709 (antisense CAATATCCTTGAGATTGGTC; listed as DNA, chemistry not fully specified) [compound 323709]	29%
175292 (antisense AGTCTCAAACTCAGTCTTCG; listed as DNA, chemistry not fully specified) [compound 175292]	78%
323696 (antisense CCAGACTTCATTCCTTTTAT; listed as DNA, chemistry not fully specified) [compound 323696]	44%
175315 (antisense GCAGCGGCCCAGGGCTCGGC; listed as DNA, chemistry not fully specified) [compound 175315]	75%
323762 (antisense GCCTTGTGTCCTGAGTGTCT; listed as DNA, chemistry not fully specified) [compound 323762]	84%
323708 (antisense TCCTTGAGATTGGTCATCTC; listed as DNA, chemistry not fully specified) [compound 323708]	41%
323704 (antisense CGGTAGTCCTCGGCCTTGGA; listed as DNA, chemistry not fully specified) [compound 323704]	71%
